Measurements taken from US4537893A, “Octahydrothiazolo[4,5-g]quinolines and use as prolactin secretion inhibitors” (Eli Lilly and Company, priority 1984, dated 1985).

Key:
[1] = tested on: 6-hydroxydopamine-lesioned rats (nigroneostriatal-lesioned); assay: Turning behavior in 6-hydroxydopamine-lesioned rats (Table 2); type: in vivo, rat; settings: for Average No. of turns per rat: first 15 minutes after end of latency period
Description: In this test, nigroneostriatal-lesioned rats are employed, as prepared by the procedure of Ungerstedt and Arbuthnott, Brain Res, 24, 485 (1970). A compound having dopamine agonist activity causes the rats to turn in circles contralateral to the side of the lesion. After a latency period, which varies from compound to compound, the number of turns is counted over a 15-minute period.

prolactin secretion = assay: Inhibition of prolactin secretion in reserpine-treated male rats (Table 1); type: in vivo, rat (Sprague-Dawley); settings: 50 mcg/kg i.p., 1 h after treatment
Description: As previously stated, the drugs of this invention as represented by formulas I and III above are D-2 dopamine agonists.
Adult male rats of the Sprague-Dawley strain weighing about 200 g. were housed in an air-conditioned room with controlled lighting (lights on 6 a.m.-8 p.m.) and fed lab chow and water ad libitum. Each rat received an intraperitoneal injection of 2.0 mg. of reserpine in aqueous suspension 18 hours before administration of the test drug. The purpose of the reserpine was to keep the rat prolactin levels uniformly elevated. The compound was dissolved in 10 percent ethanol, and injected intraperitoneally at doses of 0.017, 0.03, 0.17 and 0.3μ moles/kg. The compound was administered at each dose level to a group of 10 rats, and a control group of 10 intact males received an equivalent amount of 10 percent ethanol. One hour after treatment, all rats were killed by decapitation, and 150 μl aliquots of serum were assayed for prolactin.
The difference between the prolactin level of the treated rats and prolactin level of the control rats, divided by the prolactin level of the control rats, gives the percent inhibition of prolactin secretion attributable to the given dose. Inhibition percentages are given in Tables 1 and 2 below for compounds according to I or III above respectively. […]

| Compound | % Rats exhibiting turning behaviour ([1]; dose 1000 mcg/kg) [%] | Average No. of turns per rat ([1]; dose 1000 mcg/kg) [turns per rat] | % Rats exhibiting turning behaviour ([1]; dose 20 mcg/kg) [%] | Average No. of turns per rat ([1]; dose 20 mcg/kg) [turns per rat] | % Rats exhibiting turning behaviour ([1]; dose 100 mcg/kg) [%] | Average No. of turns per rat ([1]; dose 100 mcg/kg) [turns per rat] | Percent Inhibition of Prolactin Secretion (prolactin secretion) [%] |
| --- | --- | --- | --- | --- | --- | --- | --- |
| CCCN1CCC[C@H]2Cc3nc(NC(C)=O)sc3C[C@@H]21 (racemic) [n-Pr, NHCOCH3, FB, trans-(±), Trans-(±)-2-acetylamino-5-n-propyl-4,4a,5,6,7,8,8a,9-octahydrothiazolo[4,5-g]quinoline] | 100 | 91 | – | – | – | – | – |
| CCCN1CCC[C@H]2Cc3nc(N4CCCC4)sc3C[C@@H]21 (racemic) [n-Pr, 1-pyrrolidinyl, FB, Trans-(±), Trans-(±)-2-(1-pyrrolidinyl)-5-n-propyl-4,4a,5,6,7,8,8a,9-octahydrothiazolo[4,5-g]quinoline] | 100 | 67 | – | – | – | – | – |
| CCCN1CCC[C@@H]2Cc3nc(N)sc3C[C@H]21 [n-Pr, NH2, 2HCl, trans-(-), 4aR,8aR-2-amino-5-n-propyl-4,4a,5,6,7,8,8a,9-octahydrothiazolo[4,5-g]quinoline] | 100 | 109 | 100 | 37 | 80 | 102 | – |
| CCCN1CCC[C@H]2Cc3nc(N(C)C)sc3C[C@@H]21 (racemic) [n-Pr, N(CH3)2, 2HCl, trans (±), trans-(±)-2-dimethylamino-5-n-propyl-4,4a,5,6,7,8,8a,9-octahydrothiazolo[4,5-g]quinoline] | 100 | 62 | – | – | – | – | – |
| CCCN1CCC[C@H]2Cc3nc(Br)sc3C[C@@H]21 (racemic) [n-Pr, Br, 2HCl, Trans-(±), Trans-(±)-2-bromo-5-n-propyl-4,4a,5,6,7,8,8a,9-octahydrothiazolo[4,5-g]quinoline] | 100 | 42 | – | – | – | – | – |
| CCCN1CCC[C@H]2Cc3ncsc3C[C@@H]21.Cl.Cl (racemic) [n-Pr, H, 2HCl, trans-(±), trans-(±)-5-n-propyl-4,4a,5,6,7,8,8a,9-octahydrothiazolo[4,5-g]quinoline dihydrochloride] | 100 | 100 | 25 | 16 | 100 | 44 | – |
| CCCN1CCC[C@H]2Cc3nc(NC)sc3C[C@@H]21.Cl.Cl (racemic) [n-Pr, NHCH3, 2HCl, trans (±), trans-(±)-2-methylamino-5-n-propyl-4,4a,5,6,7,8,8a,9-octahydrothiazolo[4,5-g]-quinoline dihydrochloride] | 100 | 100 | 75 | 27 | 100 | 80 | – |
| Br.Br.CCCN1CCC[C@H]2Cc3nc(N)sc3C[C@@H]21 (racemic) [n-Pr, NH2, 2HBr, trans (±), trans-(±)-2-amino-5-n-propyl-4,4a,5,6,7,8,8a,9-octahydrothiazolo[4,5-g]quinoline dihydrobromide] | – | – | 0 | – | 78 | 51 | – |
| CCC[N+]1(C)CCCC2Cc3scnc3CC21.I.[I-] (racemic) [n-Pr, H, HI methiodide, trans-(±), trans-(±)-5-n-propyl-4,4a,5,6,7,8,8a,9-octahydrothiazolo[4,5-g]quinolinium methiodide hydroiodide] | – | – | – | – | – | – | 30 |
